Measured values: patent US20100204295A1, “TREATMENT OF ALLERGIC DISEASE WITH IMMUNOMODULATOR COMPOUNDS” (SCICLONE PHARMACEUTICALS, INC., priority 2007, published 2010)

Key:
OVA specific IgG1 = OVA specific IgG1 in serum by ELISA, guinea pig model; assay type: in vivo, Dunkin-Hartley guinea pigs; settings: 1 or 10 ug/kg ip days 17-21
Method: Animals were sensitized on day 0 ip with 50 mg/kg OVA. On Days 17, 18, 19, and 20, animals received an ip injection between 8 and 10 am with PBS, SCV-07 at 1 ug/kg, or SCV-07 at 10 ug/kg (Peptide treatment). Between 8 and 10 a.m. on Day 21, animals were administered peptide 2 hours before OVA or saline (NSS) aerosol challenge. 30 min before OVA or NSS aerosol challenge each animal was injected ip with an antihistamine (6.1 mg/kg pyrilamine maleate) to prevent death due to the anaphylactic response that accompanies aerosol OVA challenge. Animals were exposed to aerosol in pairs with either 1% OVA solution or NSS for 5 min in a plexiglass chamber (22×22×29 cm) using a DeVilbiss Model 35B Ultrasonic Nebulizer. Animals were observed during the total 5 min aerosolization and comments recorded. Within 22-24 hours after challenge, animals were euthanized, bled by cardiac puncture, lavaged and lung lobes removed for measurement of cellular infiltration. At the time of OVA or NSS challenge and euthanasia, animal weights ranged from approximately 350-550 g, with the average weight approximately 420 g. […]
OVA specific IgG1 in serum was determined by ELISA as previously described (Fraser et al., 1998; Regal et al., 2000). The data were expressed as the concentration of OVA specific IgG1 in the sample divided by the concentration of OVA specific IgG1 in the standard, defined as 1. […]

interferon-γ = test: ConA-induced IFN-γ production by splenocytes after intra-abdominal SCV-07; assay type: in vivo, mice; settings: 1 μg/kg, five daily intra-abdominal injections; ConA 5 μg/mL
Method: SCV-07 was administered to intact wild mice in the form of five daily intra-abdominal injections at dosages of 0.1 and 1.0 μg/kg of body weight. After this, isolation of spleen cells was carried out the cytokine synthesis was induced in the culture by stimulating the cells with concanavalin A at a dosage of 5 μg/mL. The levels of the synthesized cytokines were determined by quantitative immunoenzyme analysis. […] The changes on ConA-induced production of two other [sic] cytokines—IFN-γ and IL-4, as is apparent from FIG. 1, were reciprocal in nature.

anti-OvA IgE = test: Titer of anti-OvA IgE in serum and BAL by solid phase IFA, ovalbumin asthma model; assay type: in vivo, mice of the Balb/C line; settings: for Titer IgE BAL, dilution 1:8, % of average of the control group / Titer IgE of serum, dilution 1:640, % of average of the control group: animals 6 to 8 weeks; for Titer IgE BAL, dilution 1:32, % of average of the control group / Titer IgE of serum, dilution 1:400, % of average of the control group: animals 18 to 20 weeks
Description: Female, non-pathogenic mice of the Balb/C line (“Pushchtino” laboratory animal breeders) were kept under conditions of an SPF-vivarium at a constant temperature, 12-hour day/night cycle, and received sterile feed and water ad libitum. In two series of experiments, mice from 6-8 weeks and 18-20 weeks of age were used at the beginning of the experiment, respectively.
The animals were immunized twice at 5-day intervals with an ovalbumin solution (Sigma) in an adjuvant based on ammonium sulfate at a dosage of 8 μg per mouse. SCV-07 was administered intra-abdominally in a volume of 200 μL at a dosage of 0.1 or 1.0 μg/kg in PBS once a day from 6 through 11 days after the first immunization. The control group received physiological saline on the same days. Each group comprised 6 to 10 animals. On the 12th, 16th and 20th days after the first immunization, the animals were then placed in a hermetic box, in which an aerosol of 1% ovalbumin solution (OvA) in PBS was generated with an ultrasonic nebulizer LD-207U (Little Doctor) for 1 minute with continuous mixing of air. The duration of exposure of the animals to the aerosol was 15 minutes. Analysis of the severity of experimental allergic asthma was carried out 24 hours after the last aerosol exposure.
The peripheral blood was collected from the retro-orbital sinus. The titer of anti-OvA IgE in the serum and bronchoalveolar lavage was determined with solid phase IFA according to the following scheme. Rat antibodies to murine IgE labeled with biotin (Caltag) were introduced to a 96-well plate for IFA ((Corning Costar) in the dilution recommended by the manufacturer (100 μL/well), incubated for an hour at room temperature and washed. Serum samples or BAL were then introduced in successive dilutions and incubated at room temperature for an hour and washed. OvA was then added, labeled with horseradish peroxidase, incubated on a shaker for an hour at room temperature, washed and the substrate for peroxidase introduced (OPD, Sigma) and incubated for 15 minutes. The reaction was stopped by adding 1 M H2SO4 and the plates were analyzed on a Victor2 spectrophotometer (Wallac) at a wavelength of 450 nm. For quantitative comparison of the titers of the antigen-specific IgE after subtracting the background, we calculated the average optical density in each dilution for samples of the animal control group, and expressed the optical densities in the samples from all animals in the experiment in corresponding dilution as the percentages of the values obtained.

## N[C@H](CCC(=O)N[C@@H](Cc1c[nH]c2ccccc12)C(=O)O)C(=O)O [SCV-07, γ-D-glutamyl-L-tryptophan]
OVA specific IgG1
  Concentration of OVA specific IgG1 antibody in the serum: did not significantly affect
interferon-γ
  Change in ConA-induced IFN-γ production by the splenocytes: almost five-fold increase
anti-OvA IgE; 0.1 μg/kg
  Titer IgE BAL, dilution 1:8, % of average of the control group: 59 ± 33 % of average of the control group
  Titer IgE of serum, dilution 1:640, % of average of the control group: 86 ± 42 % of average of the control group
  Titer IgE BAL, dilution 1:32, % of average of the control group: 85 ± 70 % of average of the control group
  Titer IgE of serum, dilution 1:400, % of average of the control group: 92 ± 44 % of average of the control group
anti-OvA IgE; 1 μg/kg
  Titer IgE BAL, dilution 1:8, % of average of the control group: 46 ± 24 % of average of the control group
  Titer IgE of serum, dilution 1:640, % of average of the control group: 65 ± 26 % of average of the control group
  Titer IgE BAL, dilution 1:32, % of average of the control group: 101 ± 51 % of average of the control group
  Titer IgE of serum, dilution 1:400, % of average of the control group: 79 ± 46 % of average of the control group
